Assay results: patent publication EP3991729A1, “USE OF AMLEXANOX IN PREPARING ANTI-HEPATITIS VIRUS DRUG” (Marine Biomedical Research Institute Of Qingdao Co., Ltd., priority 2019, dated 2020)

Legend:
hepatitis B virus [1] = experiment: Mouse venous hypertension model (genotype A), serum HBsAg by ELISA, dose groups (Example 12); conditions: dose higher than 50 mg/day (converted adult dose), once a day oral gavage, seven days of administration, Figure 15
Procedure: (§3) Six-week-old male C57 mice were rapidly injected with 10µg/mouse of viral genomic DNA (genotype A) by tail vein injection in a short period. Viral infection was established using a venous hypertension model and randomly divided into groups. […] At the same time, a blank control was set up, and oral administration in uninfected mice was equivalent to the model group.
(§4) On days 1, 3, and 7 of administration, an appropriate amount of blood was collected from the tail vein of mice in each group. On day 9, the remaining peripheral blood was collected after the mice were sacrificed. All blood samples were centrifuged to obtain serum, divided into two portions. One was used to detect the concentration of HBsAg by ELISA, and the other was used to detect the enzyme activity of alanine aminotransferase (ALT) by alanine aminotransferase kit (colorimetric method) (Nanjing Jiancheng Bioengineering Institute).

hepatitis B virus [2] = experiment: HBV replication in HepAD38 cell model, qPCR of cccDNA, core particle DNA and supernatant HBV DNA; type: cell-based; conditions: 20µM, 10µM and 5µM, HepAD38, 96 and 144 hours, Figures 10, 11, 12
Procedure: 2×10^5 HepAD38 cells that were stably expressing HBV with good growth status were seeded in collagen pretreated 6-well plates, and the corresponding concentrations of the test substances were added: final concentration of 1µM for entecavir (ETV) and a final concentration of 20µM, 10µM, and 5µM for amlexanox (AML), respectively. Two groups of controls were also set up, one with solvent only (DMF) and one with antibiotic only (tetracycline). Three replicate wells were set for all groups. After 96 hours and 144 hours of test article addition, 500 µL of cell culture supernatant was used to extract DNA from the supernatant, and the amount of HBV DNA in the supernatant was detected by qPCR. After 144h, cells were harvested and lysed in Lysis buffer A (50 mM Tris-HCl, pH 7.4, 1 mM EDTA, and 1% NP-40). The supernatant and pellet of the lysates were collected, respectively, from which DNA was extracted and quantified by quantitative PCR. Linear DNA was removed by DNA exonuclease (NEB) after DNA extraction from the cell lysate pellet, so only circular DNA (cccDNA) was examined (Figure 10). Viral DNA in the supernatant of cell lysates was defined as core particle DNA (Figure 11).

[3] = system: alanine aminotransferase (ALT); experiment: Mouse venous hypertension model (genotype A), serum alanine aminotransferase (ALT) activity, colorimetric kit; conditions: 25-200 mg/day (converted adult dose), once a day oral gavage, Figure 16
Procedure: as §3, §4

THP-1 cells = experiment: Cytotoxicity test, MTT assay; type: cell-based; conditions: Homo sapiens, THP-1, 72 h, read-out: Inhibition (%) THP -1
Procedure: (§1) […]. Various cells in the logarithmic growth phase were seeded in 96-well plates at 6,000 cells/well and cultured for 24h. […]. The dosage of DMSO in the solvent control group was based on the maximum dose of 0.1% used in the test group, with four duplicate wells for each concentration. Cells were treated with the drug for 72h and then added with 20µL 5 mg/mL MTT, cultured at 37°C for 4h, after added 100 µ L triple solution (10% SDS, 5% isobutanol, 12 mM hydrochloric acid), 96-well cell culture plate was placed in an incubator containing 5% CO2 at 37 ± 1°C overnight. OD value at 570nm was measured on a microplate reader.
(§2) The inhibition rate of tumor cell growth was calculated according to the following formula: Inhibition rate(%) = [(OD570controlwell−OD570dosewell)/OD570controlwell] × 100. [formula]

HepG2 cells = experiment: Cytotoxicity test, MTT assay; type: cell-based; conditions: Homo sapiens, HepG2, 72 h, read-out: Inhibition (%) Hep G2
Procedure: as §1, §2

MKN45 cells = experiment: Cytotoxicity test, MTT assay; type: cell-based
Procedure: as §1, §2

HCT-116 cells = experiment: Cytotoxicity test, MTT assay; type: cell-based
Procedure: as §1, §2

MCF7 cells = experiment: Cytotoxicity test, MTT assay; type: cell-based
Procedure: as §1, §2

Huh7 cells = experiment: Cytotoxicity test, MTT assay; type: cell-based
Procedure: as §1, §2

A549 cells = experiment: Cytotoxicity test, MTT assay; type: cell-based; conditions: Homo sapiens, A549, 72 h, read-out: Inhibition (%) A549
Procedure: as §1, §2

Hela cells = experiment: Cytotoxicity test, MTT assay; type: cell-based; conditions: Homo sapiens, 72 h, read-out: Inhibition (%) Hel a
Procedure: as §1, §2

293 cells = experiment: Cytotoxicity test, MTT assay; type: cell-based; conditions: Homo sapiens, HEK293, 72 h, read-out: Inhibition (%) 293
Procedure: as §1, §2

[4] = Homo sapiens, MKN-45, 72 h, read-out: Inhibition (%) MKN 45
[5] = Homo sapiens, HCT-116, 72 h, read-out: Inhibition (%) HCT-116
[6] = Homo sapiens, MCF7, 72 h, read-out: Inhibition (%) MC F7
[7] = Homo sapiens, Huh-7, 72 h, read-out: Inhibition (%) Hu h7

## CC(C)c1ccc2oc3nc(N)c(C(=O)O)cc3c(=O)c2c1 [amlexanox, Amlexanox]
Hepatitis B virus [1]
  concentration of HBsAg in serum: significantly reduced surface antigen (HBsAg) levels
Hepatitis B virus [2]
  HBV DNA (cccDNA, core particle DNA, viral DNA in cell culture supernatant): significantly inhibits hepatitis B virus replication in the HepAD38 cell model
[3]
  enzyme activity of alanine aminotransferase (ALT) in serum: can effectively reduce alanine aminotransferase activity
THP-1 cells
  inhibition at 3.125 µM: 0%
  inhibition at 6.25 µM: 0%
  inhibition at 12.5 µM: 0%
  inhibition at 25 µM: 0%
  inhibition at 50 µM: 0%
  inhibition at 100 µM: 7.44%
HepG2 cells
  inhibition at 3.125 µM: 0%
  inhibition at 6.25 µM: 0%
  inhibition at 12.5 µM: 0%
  inhibition at 25 µM: 0%
  inhibition at 50 µM: 0%
  inhibition at 100 µM: 4.8%
MKN45 cells; [4]
  inhibition at 3.125 µM: 0%
  inhibition at 6.25 µM: 3.61%
  inhibition at 12.5 µM: 4.9%
  inhibition at 25 µM: 9.22%
  inhibition at 50 µM: 13.9%
  inhibition at 100 µM: 30.9%
MKN45 cells; MKN45, 100 µM, 72h
  cytotoxicity: some cytotoxicity
HCT-116 cells; HCT-116, 100 µM, 72h
  cytotoxicity: some cytotoxicity
HCT-116 cells; [5]
  inhibition at 3.125 µM: 0%
  inhibition at 6.25 µM: 0%
  inhibition at 12.5 µM: 0.11%
  inhibition at 25 µM: 1.17%
  inhibition at 50 µM: 6.41%
  inhibition at 100 µM: 31.1%
MCF7 cells; [6]
  inhibition at 3.125 µM: 1.03%
  inhibition at 6.25 µM: 0.86%
  inhibition at 12.5 µM: 1.22%
  inhibition at 25 µM: 3.8%
  inhibition at 50 µM: 16.4%
  inhibition at 100 µM: 43.5%
MCF7 cells; MCF7, 100 µM, 72h
  cytotoxicity: some cytotoxicity
Huh7 cells; [7]
  inhibition at 3.125 µM: 0%
  inhibition at 6.25 µM: 7.28%
  inhibition at 12.5 µM: 15%
  inhibition at 25 µM: 18.1%
  inhibition at 50 µM: 26.2%
  inhibition at 100 µM: 35.2%
Huh7 cells; Huh7, 100 µM, 72h
  cytotoxicity: some cytotoxicity
A549 cells
  inhibition at 3.125 µM: 3.55%
  inhibition at 6.25 µM: 1.31%
  inhibition at 12.5 µM: 0.65%
  inhibition at 25 µM: 0%
  inhibition at 50 µM: 1.08%
  inhibition at 100 µM: 4.54%
Hela cells
  inhibition at 3.125 µM: 3.08%
  inhibition at 6.25 µM: 2.48%
  inhibition at 12.5 µM: 1.7%
  inhibition at 25 µM: 0.79%
  inhibition at 50 µM: 1.89%
  inhibition at 100 µM: 6.15%
293 cells
  inhibition at 3.125 µM: 0%
  inhibition at 6.25 µM: 0%
  inhibition at 12.5 µM: 0%
  inhibition at 25 µM: 0%
  inhibition at 50 µM: 0%
  inhibition at 100 µM: 11.3%
